Assays:
[1] = tested on: CCRF-CEM; test: NCI-60 SRB growth inhibition, one-dose and five-dose; assay type: cell-based; details: Homo sapiens
[2] = tested on: K-562; test: as above; assay type: cell-based; details: Homo sapiens
[3] = tested on: EKVX; test: as above; assay type: cell-based; details: Homo sapiens
[4] = tested on: HOP-62; test: as above; assay type: cell-based; details: Homo sapiens
[5] = tested on: HOP-92; test: as above; assay type: cell-based; details: Homo sapiens
[6] = tested on: NCI-H226; test: as above; assay type: cell-based; details: Homo sapiens
[7] = tested on: NCI-H23; test: as above; assay type: cell-based; details: Homo sapiens
[8] = tested on: NCI-H322M; test: as above; assay type: cell-based; details: Homo sapiens
[9] = tested on: NCI-H460; test: as above; assay type: cell-based; details: Homo sapiens
[10] = tested on: NCI-H522; test: as above; assay type: cell-based; details: Homo sapiens
[11] = tested on: COLO 205; test: as above; assay type: cell-based; details: Homo sapiens
[12] = tested on: HCC-2998; test: as above; assay type: cell-based; details: Homo sapiens
[13] = tested on: HCT-116; test: as above; assay type: cell-based; details: Homo sapiens
[14] = tested on: HCT-15; test: as above; assay type: cell-based; details: Homo sapiens
[15] = tested on: HT29; test: as above; assay type: cell-based; details: Homo sapiens
[16] = tested on: KM12; test: as above; assay type: cell-based; details: Homo sapiens
[17] = tested on: SF-268; test: as above; assay type: cell-based; details: Homo sapiens
[18] = tested on: SNB-75; test: as above; assay type: cell-based; details: Homo sapiens
[19] = tested on: U251; test: as above; assay type: cell-based; details: Homo sapiens
[20] = tested on: LOX IMVI; test: as above; assay type: cell-based; details: Homo sapiens
[21] = tested on: MALME-3M; test: as above; assay type: cell-based; details: Homo sapiens
[22] = tested on: M14; test: as above; assay type: cell-based; details: Homo sapiens
[23] = tested on: SK-MEL-2; test: as above; assay type: cell-based; details: Homo sapiens, SK-MEL-2, read-out: percent growth inhibition
[24] = tested on: SK-MEL-28; test: as above; assay type: cell-based; details: Homo sapiens
[25] = tested on: SK-MEL-5; test: as above; assay type: cell-based; details: Homo sapiens
[26] = tested on: UACC-62; test: as above; assay type: cell-based; details: Homo sapiens
[27] = tested on: IGROV1; test: as above; assay type: cell-based; details: Homo sapiens
[28] = tested on: OVCAR-3; test: as above; assay type: cell-based; details: Homo sapiens
[29] = tested on: OVCAR-4; test: as above; assay type: cell-based; details: Homo sapiens
[30] = tested on: OVCAR-5; test: as above; assay type: cell-based; details: Homo sapiens
[31] = tested on: NCI/ADR-RES; test: as above; assay type: cell-based; details: Homo sapiens
[32] = tested on: SK-OV-3; test: as above; assay type: cell-based; details: Homo sapiens
[33] = tested on: 786-0; test: as above; assay type: cell-based; details: Homo sapiens
[34] = tested on: A498; test: as above; assay type: cell-based; details: Homo sapiens
[35] = tested on: ACHN; test: as above; assay type: cell-based; details: Homo sapiens
[36] = tested on: TK-10; test: as above; assay type: cell-based; details: Homo sapiens
[37] = tested on: PC-3; test: as above; assay type: cell-based; details: Homo sapiens
[38] = tested on: MCF7; test: as above; assay type: cell-based; details: Homo sapiens
[39] = tested on: HS 578 T; test: as above; assay type: cell-based; details: Homo sapiens
[40] = tested on: BT-549; test: as above; assay type: cell-based; details: Homo sapiens
[41] = tested on: T-47D; test: as above; assay type: cell-based; details: Homo sapiens, T47D
[42] = tested on: NCI 60-cell line panel (full panel); test: NCI-60 SRB growth inhibition, full panel mean / MG-MID; assay type: cell-based, human
[43] = read-out: percent growth inhibition

CC(=O)Nc1ccc(/C=C/C(=O)c2cccc(NCc3csc4ccccc34)c2)cc1 [Compound 5i, (E)-N-(4–(3-(3-((benzo[b]thiophen-3-ylmethyl)amino)phenyl)-3-oxoprop-1-en-1-yl)phenyl) acetamide]
GI50 [1]: 2.87 µM | inhibition at 10 µM [1, 43]: 125% | GI50 ([2]; K562): 3.07 µM | inhibition at 10 µM ([2]; K562, read-out: percent growth inhibition): 114% | GI50 [3]: 10.8 µM | inhibition at 10 µM [3, 43]: 73% | GI50 ([4]; HOP-62): 11.2 µM | inhibition at 10 µM ([4]; HOP-62, read-out: percent growth inhibition): 73.8% | GI50 ([5]; HOP-92): 18.3 µM | inhibition at 10 µM ([5]; HOP-92, read-out: percent growth inhibition): 12.3% | GI50 ([6]; NCI-H226): 7.73 µM | inhibition at 10 µM ([6]; NCI-H226, read-out: percent growth inhibition): 91.9% | GI50 ([7]; NCI-H23): 9.1 µM | inhibition at 10 µM ([7]; NCI-H23, read-out: percent growth inhibition): 57.5% | GI50 [8]: 17.5 µM | inhibition at 10 µM [8, 43]: 41.2% | GI50 ([9]; NCI-H460): 3.84 µM | inhibition at 10 µM ([9]; NCI-H460, read-out: percent growth inhibition): 88.9% | GI50 ([10]; NCI-H522): 5.78 µM | inhibition at 10 µM ([10]; NCI-H522, read-out: percent growth inhibition): 87.6% | GI50 ([11]; COLO 205): 17 µM | inhibition at 10 µM ([11]; COLO 205, read-out: percent growth inhibition): 19.8% | GI50 ([12]; HCC 2998): 12.4 µM | inhibition at 10 µM ([12]; HCC 2998, read-out: percent growth inhibition): 56% | GI50 ([13]; HCT-116, HCT-116, five-dose screening): 2.02 µM | inhibition at 10 µM ([13]; HCT-116, read-out: percent growth inhibition): 180% | GI50 ([14]; HCT-15): 2.1 µM | inhibition at 10 µM ([14]; HCT-15, read-out: percent growth inhibition): 142% | GI50 ([15]; HT-29): 5.38 µM | inhibition at 10 µM ([15]; HT-29, read-out: percent growth inhibition): 92.8% | GI50 ([16]; KM12): 5.12 µM | inhibition at 10 µM ([16]; KM12, read-out: percent growth inhibition): 129% | GI50 ([17]; SF-268): 12.7 µM | inhibition at 10 µM ([17]; SF-268, read-out: percent growth inhibition): 80% | GI50 ([18]; SNB-75): 3.39 µM | inhibition at 10 µM ([18]; SNB-75, read-out: percent growth inhibition): 30.5% | GI50 ([19]; U-251): 2.24 µM | inhibition at 10 µM ([19]; U-251, read-out: percent growth inhibition): 165% | GI50 [20]: 2.05 µM | inhibition at 10 µM [20, 43]: 174% | GI50 [21]: 9.28 µM | inhibition at 10 µM [21, 43]: 55.5% | GI50 ([22]; M14): 10.9 µM | inhibition at 10 µM ([22]; M14, read-out: percent growth inhibition): 57.7% | inhibition at 10 µM [23]: 39.9% | GI50 ([24]; SK-MEL-28): 11.9 µM | inhibition at 10 µM ([24]; SK-MEL-28, read-out: percent growth inhibition): 53.4% | GI50 ([25]; SK-MEL-5): 5.97 µM | inhibition at 10 µM ([25]; SK-MEL-5, read-out: percent growth inhibition): 85.9% | GI50 ([26]; UACC-62): 6.44 µM | inhibition at 10 µM ([26]; UACC-62, read-out: percent growth inhibition): 76.7% | GI50 ([27]; IGROV-1): 4.18 µM | inhibition at 10 µM ([27]; IGROV-1, read-out: percent growth inhibition): 56.9% | GI50 ([28]; OVCAR-3): 3.47 µM | inhibition at 10 µM ([28]; OVCAR-3, read-out: percent growth inhibition): 133% | GI50 ([29]; OVCAR-4): 9.52 µM | inhibition at 10 µM ([29]; OVCAR-4, read-out: percent growth inhibition): 64.8% | GI50 ([30]; OVCAR-5): 13 µM | inhibition at 10 µM ([30]; OVCAR-5, read-out: percent growth inhibition): 30.4% | GI50 [31]: 2.79 µM | inhibition at 10 µM [31, 43]: 117% | GI50 ([32]; SK-OV-3): 16.7 µM | inhibition at 10 µM ([32]; SK-OV-3, read-out: percent growth inhibition): 1.94% | GI50 ([33]; 786-0): 11.4 µM | inhibition at 10 µM ([33]; 786-0, read-out: percent growth inhibition): 81.8% | GI50 ([34]; A498): 17.4 µM | inhibition at 10 µM ([34]; A498, read-out: percent growth inhibition): 9.33% | GI50 [35]: 7.35 µM | inhibition at 10 µM [35, 43]: 51.4% | GI50 ([36]; TK-10): 17.6 µM | inhibition at 10 µM ([36]; TK-10, read-out: percent growth inhibition): 23.9% | GI50 ([37]; PC-3): 4.57 µM | inhibition at 10 µM ([37]; PC-3, read-out: percent growth inhibition): 70.8% | GI50 ([38]; MCF7): 2.4 µM | inhibition at 10 µM ([38]; MCF7, read-out: percent growth inhibition): 130% | GI50 [39]: 4.49 µM | inhibition at 10 µM [39, 43]: 68.5% | GI50 ([40]; BT-549): 4.29 µM | inhibition at 10 µM ([40]; BT-549, read-out: percent growth inhibition): 83.6% | GI50 [41]: 4.14 µM | inhibition at 10 µM [41, 43]: 79.7% | GI50 ([42]; Homo sapiens, 60 cell, read-out: Full panel GI50 mean): 7.06 µM | Full panel Mean GI % ([42]; mean over NCI-60 panel, single dose 10 µM): 82.81%

From article PMC11003488 (Journal of Enzyme Inhibition and Medicinal Chemistry, 2023)
